Assay results taken from article PMC8235719, “New RAD51 Inhibitors to Target Homologous Recombination in Human Cells” (Genes, 2021).
Entries after “also recorded” stand apart in the source; their conditions may differ. Where two headings read alike, the source gives them in different places.

Tests used:
Assay type in all cases: cell-based, human
MDA-MB-231 cells [1] = experiment: EdU cell proliferation assay, MDA-MB-231; conditions: 24 h
Procedure: Exponentially growing MDA-MB-231 and MCF 10A cells were seeded into 6-well plates at a density of 1.5 × 10^5 cells/well in the presence of indicated concentrations of B02-iso or 0.1% DMSO (for control cells). After 24 h of incubation, cells were labeled with 10 µM Edu (Invitrogen; Waltham, […], USA) for 1 h or left unlabeled in the control. Cells were harvested and centrifuged at 500× g, 4 °C for 5 min, and cell pellets were washed with PBS supplemented with 1% BSA, spun down, and fixed with 4% methanol-free formaldehyde (Pierce) in PBS for 15 min. Cells were washed with PBS containing 1% BSA, centrifuged 500× g for 5 min. Cell pellets were resuspended in PBS containing 0.1% Triton X-100 and incubated for 15 min for permeabilization. Cells were spun down, resuspended in freshly prepared Edu click labeling solution (1 mM CuSO4, 1.25 µM Alexa Fluor 488 Azide (Invitrogen; Waltham, […], USA), 50 mM ascorbic acid in PBS) and incubated for 30 min in the dark. Cells were washed twice with PBS containing 0.1% Triton X-100, resuspended in the same buffer, and analyzed for Edu incorporation by flow cytometry using the Guava easyCyte system (Millipore; Burlington, VT, USA) with the InCyte software (Millipore; Burlington, VT, USA).

MDA-MB-231 cells [2] = experiment: Cell viability assay (Guava ViaCount flow cytometry), MDA-MB-231; conditions: for IC50: read-out: IC50 of cell viability
Procedure: For all cell viability experiments, except experiments involving MMS treatment, cells were seeded into the media containing indicated concentrations of tested compounds or corresponding amounts of DMSO in controls. The concentration of DMSO in media was 0.1%. MDA-MB-231 cells were seeded into 24-well plates at 3.5 × 10^4 cells/well for cells for a 4-day treatment or at 5000 cells/well for a 10-day treatment. MCF 10A cells were seeded into 24-well plates at 1.5 × 10^4 cells/well for a 4-day treatment or at 500 cells/well for a 10-day treatment. In the case of 10-day treatments, the media with compounds were renewed twice on the 4th and the 7th days of treatments. After completion of the treatments, cells were harvested, and their viability was determined by flow cytometry with Guava ViaCount reagent (Luminex; Austin, TX USA). Data were analyzed using the Guava ViaCount software (Millipore; Burlington, VT, USA). The IC50 values were calculated using the GraphPad Prism 5 software (San Diego, CA, USA).

[3] = tested on: RAD51 expression in U-2 OS IndDR-GFP cells; experiment: RAD51 expression level by Western blotting; conditions: 4 µM, 24 h
Procedure: Protein concentrations in the nuclear and whole-cell extracts were determined by Bradford assay (Bio-Rad), and the equivalent protein amounts were subjected to electrophoresis in 12% SDS-Polyacrylamide gels (29:1) in Tris-Glycine-SDS buffer. After gel-electrophoresis, proteins were transferred to PVDF membranes (Amersham, Piscataway, NJ, USA) using Mini Trans-Blot Cell (BioRad, Hercules, CA, USA) at 80V for 40 min. PVDF membranes were washed in TBS and blocked with a blocking buffer (5% nonfat dry milk in TBS-T) for 1 h. Anti-RAD51 rabbit polyclonal antibody (1:1000, GeneTex, GTX100469), anti-FKBP12 monoclonal mouse antibody (1:100, BD Biosciences; Franklin lakes, NJ, USA, 610808) for the detection of ddSceGR, and anti-nucleolin mouse monoclonal antibody (1:1000, Santa Cruz Biotechnology; Dallas, Texas, sc-17826) were applied overnight in a blocking buffer at 4 °C. […] Signal was detected with SuperSignal West Pico Plus chemiluminescent substrate (Thermo Scientific; Waltham, […], USA) with a G:B0X6 imaging system (Syngene; Bangalore, India). Band intensities were quantified with the GeneTools software (Syngene; Bangalore, India).
IndDR-GFP cells. […] 10 µg of protein lysates were loaded and analyzed by SDS-PAGE. […]

[4] = tested on: γ-H2A.X foci in U-2 OS IndDR-GFP cells; experiment: γ-H2A.X foci formation (immunofluorescence); conditions: indicated concentrations, cisplatin-treated cells
Procedure: U-2 OS IndDR-GFP cells were seeded into 8-well polystyrene vessel culture slides at 5 × 10^4 cells/well. The next day, cells were pretreated with B02-iso or 0.1% DMSO (for control cells) for 1 h, followed by the treatment with 5 µM cisplatin for 4 h or left untreated (for control cells). After 4 h of incubation, cells were placed on ice, washed with PBS buffer (twice, 5 min each), pretreated with 0.5% Triton X-100 for 5 min, washed with PBS (twice, 5 min each). Cells were removed from ice and fixed with 4% methanol-free formaldehyde (Pierce; Waltham, […], USA) in PBS for 10 min. Cells were washed with PBS (twice, 5 min each), placed on ice, and permeabilized with 1% Triton X-100 in PBS for 10 min. Cells were removed from ice, washed with PBS (once, 5 min), blocked with a blocking buffer (5% BSA (Bovine Serum Albumin) in PBS) for 30 min, and incubated with rabbit polyclonal RAD51 antibody (1:1000, GeneTex, GTX100469) and mouse monoclonal anti-phospho-histone H2A.X (Ser 139) antibody (1:20,000, clone JBW301, Millipore 05-636) in blocking buffer, containing 0.3% Triton X-100 overnight at 4 °C. […] For foci quantification, 50 cells were chosen for each treatment condition at random, and foci number was counted using ImageJ software. […]

Q: For O=c1nc(/C=C/c2cccnc2)n(Cc2ccccc2)c2ccccc12 [B02-iso], which “Fraction of DNA-replicating cells (EdU)” value (MDA-MB-231 cells [1]; MDA-MB-231, 4 µM) is on record?
A: remained unchanged

Q: What about the “Reduction of fraction of DNA-replicating cells (EdU)” value (MDA-MB-231 cells [1]; MDA-MB-231, 8 µM) of the same compound?
A: approximately 20%

Q: What about the inhibition at 2 µM (MDA-MB-231 cells [2]; Homo sapiens, 96 h, MDA-MB-231, 2 µM, 4-day treatment, read-out: Growth inhibition) of the same compound?
A: < 5%

Q: And the IC50 (MDA-MB-231 cells [2]; Homo sapiens, MDA-MB-231, 96 h, MDA-MB-231, 4-day treatment)?
A: 4.1 µM

Q: What about the IC50 (MDA-MB-231 cells [2]; Homo sapiens, MDA-MB-231, 240 h, MDA-MB-231, 10-day treatment, compound alone) of the same compound?
A: 2.6 µM

Q: What about the “Effect on cell viability, compound alone” value (MDA-MB-231 cells [2]; MDA-MB-231, 1.8 µM, 10-day treatment) of the same compound?
A: does not impair cell viability

Q: And the “Fold increase in efficiency of olaparib killing” value (MDA-MB-231 cells [2]; MDA-MB-231, 10-day treatment, 1.8 µM B02-iso)?
A: 2.4 fold

Q: What about the RAD51 expression level [3] of the same compound?
A: does not change the RAD51 expression level; also recorded: did not change RAD51 expression level

Q: What about the “Level of γ-H2A.X foci” value [4] of the same compound?
A: did not reduce the level of γ-H2A.X foci
